Tested on: α-glucosidase
Experiment: α-glucosidase inhibitor activity
Type: biochemical

Activity among the alkaloids of the effective fraction: the activity is also the highest
SMILES: OCC1NCC(O)C(O)C1O (stereo not shown) [1-deoxynojirimycin]

— patent US9066960B2, “Use of the effective fraction of alkaloids from mulberry twig in preparing hypoglycemic agents” (INSTITUTE OF MATARIA MEDICA, CHINESE ACADEMY OF MEDICAL …, priority 2006, dated 2015)
